According to patent US7009036B2, “Peptide inhibiting platelet derived growth factor (PDGF-BB) and fibroblast growth factor (bFGF) activity” (Provincia Italiana Della Congregazione Dei Figli …, priority 2001, dated 2006):
Ends that are not written are not given here.

Legend:
[1] = test system: primary rat aorta smooth muscle cells (RASMC); assay: Proliferation assay, RASMC; type: cell-based; details: 0.1% BSA alone, no growth factor; any time
Protocol: (§1) This test was carried out on Primary rat aorta smooth muscle cells (RASMC) obtained from six-month old male Wistar rats following a well known technique (Sterpetti, A. V. et al., 1992, J. Vasc. Surg., 6, 16–20); primary bovine aortic endothelial cells (BAEC) were obtained according to previously described protocols (D'Arcangelo, D. et al., 2000, Circ.Res., 86, 312–318).
(§2) Proliferation assay was carried out on primary rat aorta SMC and on primary bovine aortic endothelial cells (BAEC). Cells were plated in six-well plates (1×10^5 cells/plate) and grown for 24 hours in Dulbecco Modified eagle's medium (DMEM) supplemented with 10% FBS, at 37° C. in 5% CO2. Then, the medium was replaced with DMEM medium containing 0.1% BSA for 24 hours. Subsequently, the medium was replaced with fresh medium containing either 0.1% BSA alone or 0.1% BSA with growth factors at 10 ng/ml final concentration or fetal calf serum (FCS) al 10%, in the absence or in the presence of PEP1 or control peptide. Each assay was carried out for mounting period of time up to a maximum time of three days and the cell were harvested and counted with hemacytometer.

[2] = test system: primary bovine aortic endothelial cells (BAEC); assay: Proliferation assay, BAEC; type: cell-based; details: 0.1% BSA alone, no growth factor; any time
Protocol: as §1, §2

DPHIKLQLQAE [PEP1, Asp-Pro-His-Ile-Lys-Leu-Gln-Leu-Gln-Ala-Glu]
effect on spontaneous proliferation (toxicity per se), RASMC [1]: not significantly affected
effect on spontaneous proliferation (toxicity per se), BAEC [2]: not significantly affected
